One test has as its target RET-wt (Homo sapiens (Human), UniProt P07949). Nature of the test: HTRF KinEASE-TK kinase activity test, RET-wt. It is filed as biochemical. The conditions noted are these: for IC50: HTRF kinase assay; for inhibitory activity against RET-wt compared to that of cabozantinib: versus cabozantinib. Background: TR-FRET usually uses a lanthanide donor and a delayed reading to cut background.

For another test, the target named is RET V804M (Homo sapiens (Human), UniProt P07949, V804M). Briefly: HTRF KinEASE-TK kinase activity test, RET V804M. It is filed as biochemical. Particulars: for IC50: HTRF kinase assay; for inhibitory activity against RET V804M compared to that of cabozantinib: versus cabozantinib.
The target of the next test is RET G810R (Homo sapiens (Human), UniProt P07949, G810R). Briefly: HTRF KinEASE-TK kinase activity test, RET G810R. Particulars: for inhibitory activity against RET G810R relative to that of selpercatinib (LOXO-292): fold versus selpercatinib (LOXO-292); for IC50: read-out: RET G810R IC50, HTRF kinase assay.

For orientation: IC50 means the concentration needed to halve the response being measured.

Sequence of RET V804M (P07949 29-1114 V804M): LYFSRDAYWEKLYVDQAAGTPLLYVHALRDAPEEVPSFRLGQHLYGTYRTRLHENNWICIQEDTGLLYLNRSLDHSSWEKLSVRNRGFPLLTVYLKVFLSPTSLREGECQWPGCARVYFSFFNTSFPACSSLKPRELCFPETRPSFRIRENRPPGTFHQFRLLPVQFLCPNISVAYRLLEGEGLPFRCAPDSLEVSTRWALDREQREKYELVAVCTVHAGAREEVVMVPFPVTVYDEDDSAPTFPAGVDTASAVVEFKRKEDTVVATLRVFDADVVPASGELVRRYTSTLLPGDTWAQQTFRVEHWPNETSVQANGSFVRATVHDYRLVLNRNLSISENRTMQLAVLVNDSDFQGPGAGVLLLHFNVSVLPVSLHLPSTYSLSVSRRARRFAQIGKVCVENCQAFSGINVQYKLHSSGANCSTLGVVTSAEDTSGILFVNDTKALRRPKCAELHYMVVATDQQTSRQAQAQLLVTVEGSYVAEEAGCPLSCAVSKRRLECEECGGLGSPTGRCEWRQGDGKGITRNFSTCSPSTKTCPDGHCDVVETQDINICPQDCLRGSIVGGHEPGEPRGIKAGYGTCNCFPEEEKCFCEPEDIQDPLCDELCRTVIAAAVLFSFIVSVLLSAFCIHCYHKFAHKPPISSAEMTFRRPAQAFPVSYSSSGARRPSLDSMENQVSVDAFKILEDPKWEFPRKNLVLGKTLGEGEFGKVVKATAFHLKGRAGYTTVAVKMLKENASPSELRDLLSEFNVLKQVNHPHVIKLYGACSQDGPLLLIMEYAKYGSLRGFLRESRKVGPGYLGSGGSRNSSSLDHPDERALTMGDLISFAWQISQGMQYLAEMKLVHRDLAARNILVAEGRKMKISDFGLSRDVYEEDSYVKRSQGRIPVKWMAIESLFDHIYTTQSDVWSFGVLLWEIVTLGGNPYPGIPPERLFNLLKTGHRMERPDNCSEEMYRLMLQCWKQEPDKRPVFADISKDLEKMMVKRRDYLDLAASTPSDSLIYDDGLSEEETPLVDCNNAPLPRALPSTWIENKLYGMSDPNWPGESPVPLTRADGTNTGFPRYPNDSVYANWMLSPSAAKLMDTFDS
Sequence of RET G810R (P07949 29-1114 G810R): as the sequence (P07949 29-1114 V804M) above, with M776V, G782R counted along it
Sequence of RET-wt (P07949 29-1114): as the sequence (P07949 29-1114 V804M) above, with M776V counted along it

For `CCOc1cc(-c2ccc(N3CCC(C)(NC(=O)c4ncccc4Cl)CC3)nc2)c2c3cn[nH]c3nn2c1` [Compound 3, 3-chloro-N-(1-(5-(6-ethoxy-1H-pyrazolo[3′,4′:3,4]pyrazolo[1,5-α]pyridin-4-yl)pyridin-2-yl)-4-methylpiperidin-4-yl)-2-picolinamide], at RET-wt, it took 0.1 nM to reach half-maximal inhibition (IC50) and the “inhibitory activity against RET-wt compared to that of cabozantinib” value was “significantly superior”. For the same molecule, at RET V804M, the IC50 was found to be 0.1 nM and the “inhibitory activity against RET V804M compared to that of cabozantinib” value was “significantly superior”. Also, on RET G810R, the “inhibitory activity against RET G810R relative to that of selpercatinib (LOXO-292)” value is on record as ≥ 10 times and the half-inhibitory concentration (IC50) is 2.9 nM.
`CCOc1cc(-c2ccc(N3CC[C@H](NC(=O)C4(C(F)(F)F)CCC4)[C@@H](O)C3)nc2)c2c3cn[nH]c3nn2c1` [Compound 41]: on RET-wt, the midpoint of inhibition, the IC50, lay at 0.1 nM and the “inhibitory activity against RET-wt compared to that of cabozantinib” value is recorded as “significantly superior”. At RET V804M, inhibition was half-maximal at 0.1 nM (IC50) and the “inhibitory activity against RET V804M compared to that of cabozantinib” value is “significantly superior”. Moreover, on RET G810R, the “inhibitory activity against RET G810R relative to that of selpercatinib (LOXO-292)” value is listed as ≥ 10 times and the IC50 worked out at 2.8 nM.
`CCOc1cc(-c2ccc(N3CCC(CO)(NC(=O)c4c(F)cccc4F)CC3)nc2)c2c3cn[nH]c3nn2c1` [Compound 11, N-(1-(5-(6-ethoxy-1H-pyrazolo[3′,4′:3,4]pyrazolo[1,5-α]pyridin-4-yl)pyridin-2-yl)-4-(hydroxymethyl)piperidin-4-yl)-2,6-difluorobenzamide]: on RET-wt, the half-maximal inhibitory concentration (IC50) was 0.1 nM and the “inhibitory activity against RET-wt compared to that of cabozantinib” value is given as “significantly superior”. Also, at RET V804M, 0.1 nM corresponded to half-maximal inhibition (IC50) and the “inhibitory activity against RET V804M compared to that of cabozantinib” value is recorded as “significantly superior”. At RET G810R, the “inhibitory activity against RET G810R relative to that of selpercatinib (LOXO-292)” value was ≥ 10 times and the 50% inhibitory concentration (IC50) came to 0.36 nM.
For the molecule `CCOc1cc(-c2ccc(N3CC[C@H](NC(=O)CC(C)C)[C@@H](O)C3)nc2)c2c3cn[nH]c3nn2c1` [Compound 39], on RET-wt, inhibition was half-maximal at 0.1 nM (IC50) and the “inhibitory activity against RET-wt compared to that of cabozantinib” value is “significantly superior”. On RET V804M, the half-inhibitory concentration (IC50) is 0.1 nM and the “inhibitory activity against RET V804M compared to that of cabozantinib” value is on record as “significantly superior”. Besides, the half-inhibitory concentration (IC50) at RET G810R came to 4.2 nM.
On to `CCOc1cc(-c2ccc(N3CC[C@H](NC(=O)c4ncccc4Cl)[C@H](O)C3)nc2)c2c3cn[nH]c3nn2c1` [Compound 42], for which, on RET-wt, the IC50 was found to be 0.1 nM and the “inhibitory activity against RET-wt compared to that of cabozantinib” value is on record as “significantly superior”. Also, on RET V804M, inhibition was half-maximal at 0.05 nM (IC50) and the “inhibitory activity against RET V804M compared to that of cabozantinib” value is “significantly superior”. On RET G810R, the “inhibitory activity against RET G810R relative to that of selpercatinib (LOXO-292)” value is listed as ≥ 10 times and the concentration for half-maximal inhibition (IC50) is 1.4 nM.
Regarding `CCOc1cc(-c2ccc(N3CC[C@H](NC(=O)OC(C)(C)C)[C@@H](O)C3)nc2)c2c3cn[nH]c3nn2c1` [Compound 88, Tert-butyl ((3S,4S)-1-(5-(6-ethoxy-1H-pyrazolo[3′,4′:3,4]pyrazolo[1,5-α]pyridin-4-yl)pyridin-2-yl)-3-hydroxypiperidin-4-yl)carbamate], on RET-wt, the IC50 turned out to be 0.1 nM and the “inhibitory activity against RET-wt compared to that of cabozantinib” value is “significantly superior”. At RET V804M, the IC50 was found to be 0.2 nM and the “inhibitory activity against RET V804M compared to that of cabozantinib” value is listed as “significantly superior”. In addition, on RET G810R, the IC50 is 7.8 nM.
Regarding `CCOc1cc(-c2ccc(N3CC[C@H](NC(=O)c4cc(F)ccc4C)[C@@H](O)C3)nc2)c2c3cn[nH]c3nn2c1` [Compound 46], at RET-wt, the IC50 worked out at 0.1 nM and the “inhibitory activity against RET-wt compared to that of cabozantinib” value is on record as “significantly superior”. For the same molecule, on RET V804M, inhibition was half-maximal at 0.06 nM (IC50) and the “inhibitory activity against RET V804M compared to that of cabozantinib” value was “significantly superior”. Besides, at RET G810R, the “inhibitory activity against RET G810R relative to that of selpercatinib (LOXO-292)” value is ≥ 10 times and the concentration for half-maximal inhibition (IC50) is 1.6 nM.
Consider `CCOc1cc(-c2ccc(N3CCC(C)(NC(=O)c4ncc(F)cc4Cl)CC3)nc2)c2c3cn[nH]c3nn2c1` [Compound 4], for which, on RET-wt, half-maximal inhibition (IC50) required 0.1 nM and the “inhibitory activity against RET-wt compared to that of cabozantinib” value is on record as “significantly superior”. Also, on RET V804M, the IC50 came to 0.03 nM and the “inhibitory activity against RET V804M compared to that of cabozantinib” value was “significantly superior”. At RET G810R, the “inhibitory activity against RET G810R relative to that of selpercatinib (LOXO-292)” value was ≥ 10 times and the half-maximal inhibitory concentration (IC50) came out at 2.3 nM.
For `CCOc1cc(-c2ccc(N3CC[C@H](NC(=O)c4c(F)cccc4Cl)[C@@H](O)C3)nc2)c2c3cn[nH]c3nn2c1` [Compound 44, 2-chloro-N-((3S,4S)-1-(5-(6-ethoxy-1H-pyrazolo[3′,4′:3,4]pyrazolo[1,5-α]pyridin-4-yl)pyridin-2-yl)-3-hydroxypiperidin-4-yl)-6-fluorobenzamide], on RET-wt, the IC50 was found to be 0.1 nM and the “inhibitory activity against RET-wt compared to that of cabozantinib” value was “significantly superior”. Further, at RET V804M, 0.1 nM corresponded to half-maximal inhibition (IC50) and the “inhibitory activity against RET V804M compared to that of cabozantinib” value is “significantly superior”. Further, on RET G810R, the “inhibitory activity against RET G810R relative to that of selpercatinib (LOXO-292)” value is ≥ 10 times and the half-inhibitory concentration (IC50) amounted to 0.8 nM.
As to `CCOc1cc(-c2ccc(N3CC4CCC3CN4C(=O)c3c(F)cccc3Cl)nc2)c2c3cn[nH]c3nn2c1` (stereo not drawn) [Compound 159], the IC50 at RET G810R stood at 16.1 nM.
`CCOc1cc(-c2ccc(N3CCC4(CCCN(C(=O)c5c(F)cccc5Cl)C4)CC3)nc2)c2c3cn[nH]c3nn2c1` [Compound 214]: the IC50 at RET G810R was found to be 47.3 nM.
